This passage reports IC50 results from EP1228063B1, “SUBSTITUTED PYRIDINES AND PYRIDAZINES WITH ANGIOGENESIS INHIBITING ACTIVITY” (BAYER CORPORATION, priority 1999, dated 2001).

In general, IC50 refers to the concentration needed to halve the response being measured. The low end stands for higher potency, the high end for lower potency.

Each structure is given as a SMILES string.

T1 sequence (P35968 20-1356): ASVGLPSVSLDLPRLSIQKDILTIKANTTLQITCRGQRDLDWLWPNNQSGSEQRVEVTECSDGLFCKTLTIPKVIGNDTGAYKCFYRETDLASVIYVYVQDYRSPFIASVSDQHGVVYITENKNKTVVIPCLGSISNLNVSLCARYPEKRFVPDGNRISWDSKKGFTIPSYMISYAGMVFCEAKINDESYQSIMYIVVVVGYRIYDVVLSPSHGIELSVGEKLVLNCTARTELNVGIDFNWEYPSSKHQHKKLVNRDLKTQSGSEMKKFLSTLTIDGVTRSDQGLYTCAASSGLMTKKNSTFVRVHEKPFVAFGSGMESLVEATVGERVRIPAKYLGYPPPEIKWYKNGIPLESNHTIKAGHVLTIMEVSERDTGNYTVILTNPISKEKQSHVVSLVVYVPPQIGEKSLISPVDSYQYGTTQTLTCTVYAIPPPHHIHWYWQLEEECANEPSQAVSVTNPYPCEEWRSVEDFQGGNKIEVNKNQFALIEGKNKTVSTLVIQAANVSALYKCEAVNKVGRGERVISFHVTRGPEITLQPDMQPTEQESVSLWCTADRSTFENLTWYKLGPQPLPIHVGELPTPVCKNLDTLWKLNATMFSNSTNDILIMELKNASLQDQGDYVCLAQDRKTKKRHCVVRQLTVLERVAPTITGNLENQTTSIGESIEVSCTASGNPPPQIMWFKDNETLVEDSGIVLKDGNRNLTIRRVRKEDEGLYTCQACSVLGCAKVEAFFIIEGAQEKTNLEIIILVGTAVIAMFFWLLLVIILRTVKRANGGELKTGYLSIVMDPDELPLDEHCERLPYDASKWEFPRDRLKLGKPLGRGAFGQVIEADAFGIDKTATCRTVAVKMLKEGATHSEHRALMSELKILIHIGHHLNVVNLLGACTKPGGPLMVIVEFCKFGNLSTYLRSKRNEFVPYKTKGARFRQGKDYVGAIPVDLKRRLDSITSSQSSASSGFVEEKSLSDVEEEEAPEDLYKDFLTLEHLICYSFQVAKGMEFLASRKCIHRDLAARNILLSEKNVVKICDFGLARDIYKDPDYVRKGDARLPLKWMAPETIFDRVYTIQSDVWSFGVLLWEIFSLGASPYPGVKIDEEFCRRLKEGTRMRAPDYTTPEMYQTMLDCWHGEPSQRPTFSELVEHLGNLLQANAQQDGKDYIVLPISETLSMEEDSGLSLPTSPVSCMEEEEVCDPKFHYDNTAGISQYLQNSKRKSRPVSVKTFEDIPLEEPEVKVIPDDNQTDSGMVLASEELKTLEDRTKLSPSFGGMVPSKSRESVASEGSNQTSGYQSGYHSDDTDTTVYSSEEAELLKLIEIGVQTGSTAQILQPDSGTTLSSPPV
T2 sequence (P35968 834-1162 limits assumed): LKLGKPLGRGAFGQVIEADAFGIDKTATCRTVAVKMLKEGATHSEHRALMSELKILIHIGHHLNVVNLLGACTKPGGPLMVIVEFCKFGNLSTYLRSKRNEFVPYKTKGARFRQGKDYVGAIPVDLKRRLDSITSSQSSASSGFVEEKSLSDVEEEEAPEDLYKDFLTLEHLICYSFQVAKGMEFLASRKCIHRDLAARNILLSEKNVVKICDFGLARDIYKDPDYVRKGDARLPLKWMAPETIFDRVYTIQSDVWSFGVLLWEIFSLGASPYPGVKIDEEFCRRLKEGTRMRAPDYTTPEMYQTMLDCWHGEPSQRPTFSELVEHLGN

One assay concerns the target T1, NIH3T3 cells expressing the full length KDR receptor (Homo sapiens, UniProt P35968).
T1 construct: NIH3T3 cells expressing the full length KDR receptor; expressed in transfected cells; host or cells: NIH3T3 cells (G418 selection)
As to the kind of experiment: Cell mechanistic assay - Inhibition of 3T3 KDR phosphorylation. Particulars: VEGF (30 ng / ml) stimulated KDR phosphorylation in NIH3T3 cells, 30 minutes preincubation. In kind it is cell-based. The protocol: NIH3T3 cells expressing the full length KDR receptor were grown in DMEM (Life Technologies, Inc., Grand Island, NY) supplemented with 10% newborn calf serum, low glucose, 25 mM /L sodium pyruvate, pyridoxine hydrochloride and 0.2 mg/ ml of G418 (Life Technologies Inc., Grand Island, NY). The cells were maintained in collagen I-coated T75 flasks (Becton Dickinson Labware, Bedford, MA) in a humidified 5% CO2 atmosphere at 37°C.
Fifteen thousand cells were plated into each well of a collagen 1-coated 96-well plate in the DMEM growth medium. Six hours later, the cells were washed and the medium was replaced with DMEM without serum. After overnight culture to quiesce the cells, the medium was replaced by Dulbecco's phosphate-buffered saline (Life Technologies Inc., Grand Island, NY) with 0.1 % bovine albumin (Sigma Chemical Co., St Louis, MO). After adding various concentrations (0-300 nM) of test compounds to the cells in 1% final concentration of DMSO, the cells were incubated at room temperature for 30 minutes. The cells were then treated with VEGF (30 ng / ml) for 10 minutes at room temperature. Following VEGF stimulation, the buffer was removed and the cells were lysed by addition of 150 µl of extraction buffer (50 mM Tris, pH 7.8, supplemented with 10% glycerol, 50 mM BGP, 2 mM EDTA, 10 mM NaF, 0.5 mM NaVO4, and 0.3% TX-100) at 4°C for 30 minutes.
To assess receptor phosphorylation, 100 microliters of each cell lysate was added to the wells of an ELISA plate precoated with 300 ng of antibody C20 (Santa Cruz Biotechnology, Inc., Santa Cruz , CA). Following a 60-minute incubation, the plate was washed and bound KDR was probed for phosphotyrosine using an anti-phosphotyrosine mAb clone 4G10 (Upstate Biotechnology, Lake Placid, NY). The plate was washed and wells were incubated with anti-mouse IgG/HRP conjugate (Amersham International plc, Buckinghamshire, England) for 60 minutes. Wells were washed and phosphotyrosine was quantitated by addition of 100 µl per well of 3,3',5,5' tetramethylbenzidine (Kirkegaard and Perry, TMB Microwell 1 Component peroxidase substrate) solution. Color development was arrested by the addition of 100 µl 1% HCl based stop solution (Kirkegaard and Perry, TMB 1 Component Stop Solution).
Optical densities (OD) were determined spectrophotometrically at 450 nm in a 96-well plate reader (SpectraMax 250, Molecular Devices). Background (no VEGF added) OD values were subtracted from all ODs and percent inhibition was calculated according to the equation: % Inhibition = ((OD(VEGF control)-OD(with test compound)) × 100)/(OD(VEGF control)-OD(no VEGF added)) [formula]
IC50s were determined on some of the exemplary materials with a least squares analysis program using compound concentration versus percent inhibition. Compounds that have IC50 ≤ 20 nM in this assay include those of Examples 2, 6, 10, 11, 14, 23, 96, 101, 102, 103, 104, 105. Compounds that have IC50 values between 20 nM and 50 nM include those of examples 1, 4, 8, 9, 12, 13, 17, 24, 93, 98. Compounds that have IC50 values between 50 nM and 400 nM include those of examples 97, 99, and 100.
Regarding `Clc1ccc(Nc2ncc(Sc3ccncc3)c3ccccc23)cc1` [Example 1, 1-(4-chlorophenylamino)-4-(4-pyridylthio)isoquinolinc], the half-maximal inhibitory concentration (IC50) lay within 20 to 50 nM. On the same count and under the same terms, then `Clc1ccc(Nc2ncc(Cc3ccncc3)c3ccccc23)cc1` [Example 4, 1-(4-chlorophenylamino)-4-(4-pyridylmethyl)isoquinoline], with 20 to 50 nM; and `NC(=O)c1cc(Cc2cnc(Nc3ccc(Cl)cc3)c3ccccc23)ccn1` [Example 12, 1-(4-chlorophenylamino)-4-(2-aminocarbonyl-4-pyridylmethyl)isoquinolin], with 20 to 50 nM.

On to `CNC(=O)c1cc(Cc2cnc(Nc3ccc(Cl)cc3)c3ccccc23)ccn1` [Example 13, 1-(4-chlorophenylamino)-4-(2-methylaminocarbonyl-4-pyridylmethyl)isoquinoline], for which the IC50 fell in the range of 20 to 50 nM. `Clc1ccc(Nc2nnc(Nc3ccc4ncsc4c3)c3sccc23)cc1` [Example 17, 4-(4-chlorophenylamino)-7-(benzothiazol-6-ylamino)thieno[2,3-d]pyridazine] came in with a half-maximal inhibitory concentration (IC50) of 20 to 50 nM. Turning to `c1ccc2c(Nc3ccc4ncsc4c3)nnc(Nc3ccc4ncsc4c3)c2c1` [Example 93], the IC50 is 20 to 50 nM.

For `Brc1ccc2c(c1)CCN2c1nnc(Nc2ccc3ncsc3c2)c2ccccc12` [Example 97], the IC50 fell in the range of 50 to 400 nM. Same read-out and setting: then `FC1(F)Oc2ccc(Nc3nnc(Nc4ccc5ncsc5c4)c4ccccc34)cc2O1` [Example 98], with 20 to 50 nM; and `c1ccc2c(Nc3ccc4ncsc4c3)nnc(Nc3ccc(N4CCCCC4)cc3)c2c1` [Example 99], with 50 to 400 nM; and `CCN(c1ccc(Nc2nnc(Nc3ccc4ncsc4c3)c3ccccc23)cc1)C(C)C` [Example 100], with 50 to 400 nM. The molecule `Cc1ccc(Nc2nnc(Nc3ccc4ncsc4c3)c3ccccc23)cc1F` [Example 104] returned a half-maximal inhibitory concentration (IC50) of at most 20 nM.

Another assay has as its target T2, KDR kinase domain (Homo sapiens, UniProt P35968).
T2 construct: The cytosolic kinase domain of KDR kinase was expressed as a 6His fusion protein in Sf9 insect cells; 6His; made in house; host or cells: Sf9 insect cells
As to the kind of experiment: KDR Assay (ELISA of poly(Glu4;Tyr1) phosphorylation). In kind it is biochemical. Particulars: 3.3 µM ATP, 60 minutes at room temperature. The protocol:
The cytosolic kinase domain of KDR kinase was expressed as a 6His fusion protein in Sf9 insect cells. The KDR kinase domain fusion protein was purified over a Ni++ chelating column. Ninety-six well ELISA plates were coated with 5 µg poly(Glu4;Tyr1) (Sigma Chemical Co., St Louis, MO) in 100 µl HEPES buffer (20 mM HEPES, pH 7.5, 150 mM NaCl, 0.02% Thimerosal) at 4° overnight. Before use, the plate was washed with HEPES, NaCl buffer and the plates were blocked with 1% BSA, 0.1% Tween 20 in HEPES, NaCl buffer.
Test compounds were serially diluted in 100% DMSO from 4 mM to 0.12 µM in half-log dilutions. These dilutions were further diluted twenty fold in H2O to obtain compound solutions in 5% DMSO. Following loading of the assay plate with 85 µl of assay buffer (20 mM HEPES, pH 7.5, 100 mM KCI, 10 mM MgCl2, 3 mM MnCl2, 0.05% glycerol, 0.005% Triton X-100, 1 mM -mercaptoethanol, with or without 3.3 µM ATP), 5 µl of the diluted compounds were added to a final assay volume of 100 µl. Final concentrations were between 10 µM, and 0.3 nM in 0.25% DMSO. The assay was initiated by the addition of 10µl (30 ng) of KDR kinase domain.
The assay was incubated with test compound or vehicle alone with gentle agitation at room temperature for 60 minutes. The wells were washed and phosphotyrosines (PY) were probed with an anti-phosphotyrosine (PY), mAb clone 4G10 (Upstate Biotechnology, Lake Placid, NY). PY/anti-PY complexes were detected with an anti-mouse IgG/HRP conjugate (Amersham International plc, Buckinghamshire, England). Phosphotyrosine was quantitated by incubating with 100 µl 3, 3', 5, 5' tetramethylbenzidine solution (Kirkegaard and Perry, TMB Microwell 1 Component peroxidase substrate). Color development was arrested by the addition of 100 µl 1% HCl-based stop solution (Kirkegaard and Perry, TMB I Component Stop Solution).
Optical densities were determined spectrophotometrically at 450 nm in a 96-well plate reader, SpectraMax 250 (Molecular Devices). Background (no ATP in assay) OD values were subtracted from all ODs and the percent inhibition was calculated according to the equation: % Inhibition = ((OD(vehicle control)-OD(with compound)) × 100)/(OD(vehicle control)-OD(no ATP added)) [formula]
In the case of `c1ccc2c(Nc3ccc4ncsc4c3)ncc(Sc3ccncc3)c2c1` [Example 3, 1-(benzothiazol-6-ylamino)-4-(4-pyridylthio)isoquinolin], the half-maximal inhibitory concentration (IC50) lay in the range of 100 to 1000 nM. Turning to `c1ccc2c(Nc3ccc4ncsc4c3)ncc(Cc3ccncc3)c2c1` [Example 5, 1-(benzothiazol-6-ylamino)-4-(4-pyridylmethyl)-isoquinoline], the IC50 was in the range of 100 to 1000 nM. Same read-out and setting: then `c1nc2ccc(Nc3nnc(Nc4ccc5c(c4)CCC5)c4ccsc34)cc2s1` [Example 18, 4-(indan-5-ylamino)-7-(benzothiazol-6-ylamino)thieno-[2,3-d]pyridazine], with at most 100 nM; and `COc1ccc(Nc2nnc(OCc3ccncc3)c3occc23)cc1` [Example 21, 4-(4-methoxyphenylamino)-7-(4-pyridylmethoxy)furo-[2,3-d]pyridazine], with 100 to 1000 nM; and `c1cc2c(Nc3ccc4[nH]ncc4c3)nnc(Nc3ccc4[nH]ncc4c3)c2s1` [Example 27], with 100 to 1000 nM. Still for that read-out and setting: then `c1cc2c(Nc3ccc4ncsc4c3)nnc(Nc3ccc4ncsc4c3)c2o1` [Example 28], with 100 to 1000 nM. On the same count and under the same terms, to `CNC(=O)c1cc(COc2nnc(Nc3cccc(Cl)c3)c3ccoc23)ccn1` [Example 35] belongs 100 to 1000 nM; to `CNC(=O)c1cc(COc2nnc(Nc3ccc(F)c(Cl)c3)c3ccoc23)ccn1` [Example 36], 100 to 1000 nM; to `CNC(=O)c1cc(COc2nnc(Nc3ccc(N(C)C(C)=O)cc3)c3ccoc23)ccn1` [Example 45], 100 to 1000 nM.

In the case of `CNC(=O)c1cc(COc2nnc(Nc3ccc(N4CCOCC4)cc3)c3ccoc23)ccn1` [Example 46], the IC50 fell in the range of 100 to 1000 nM. The same measure, in the same setting: then `Clc1ccc(Nc2nnc(Nc3ccc4ncsc4c3)c3occc23)cc1` [Example 48], with 100 to 1000 nM. The molecule `CNC(=O)c1cc(COc2nnc(Nc3ccccc3OC)c3ccoc23)ccn1` [Example 50] had an IC50 of 100 to 1000 nM.

Consider `CNC(=O)c1cc(COc2nnc(Nc3ccc4[nH]ncc4c3)c3ccoc23)ccn1` [Example 55], for which the half-inhibitory concentration (IC50) lay within 100 to 1000 nM. The molecule `Oc1ccc(Nc2nnc(OCc3ccncc3)c3occc23)cc1` [Example 58] had a half-inhibitory concentration (IC50) of 100 to 1000 nM. As for `O=C(c1cc(COc2nnc(Nc3ccc(Cl)cc3)c3ccoc23)ccn1)N1CCOCC1` [Example 61], the IC50 lay within 100 to 1000 nM. Still for that read-out and setting: then `OCc1cc(COc2nnc(Nc3ccc(Cl)cc3)c3ccoc23)ccn1` [Example 64], with 100 to 1000 nM; and `CNC(=O)c1cc(COc2nnc(Nc3ccc(F)cc3)c3ccsc23)ccn1` [Example 67], with 100 to 1000 nM. On the same count and under the same terms, then `Cc1ccc(Nc2nnc(Nc3ccc4ncsc4c3)c3sccc23)cc1F` [Example 79], with 100 to 1000 nM. Still for that read-out and setting: then `CN(C)CCNC(=O)c1cc(COc2nnc(Nc3ccc(Cl)cc3)c3ccoc23)ccn1` [Example 82A], with 100 to 1000 nM; and `c1ccc2c(Nc3ccc4ncsc4c3)nnc(Nc3ccc4ncsc4c3)c2c1` [Example 93], with at most 100 nM; and `Clc1ccc(Nc2nnc(Nc3ccc4nc[nH]c4c3)c3ccccc23)cc1` [Example 95], with 100 to 1000 nM. The molecule `c1ccc2c(Nc3ccc4ncsc4c3)nnc(Nc3ccc(N4CCCCC4)cc3)c2c1` [Example 99] gave a 50% inhibitory concentration (IC50) of 100 to 1000 nM. On the same count and under the same terms, to `CCN(c1ccc(Nc2nnc(Nc3ccc4ncsc4c3)c3ccccc23)cc1)C(C)C` [Example 100] belongs 100 to 1000 nM; to `Cc1ccc(Nc2nnc(Nc3ccc4ncsc4c3)c3ccccc23)cc1F` [Example 104], at most 100 nM.
